Two compounds from article PMC12339163, “Combining Plant Bioactives With Antibiotics for Enhanced Antibiofilm Activity Against Uropathogenic Staphylococcus spp. and Cytotoxicity Evaluation” (Advances in Pharmacological and Pharmaceutical Sciences, 2025) can be followed below.

What all share (format): cell-based
Experiment [1] deals with Staphylococcus epidermidis biofilm. Put plainly: Checkerboard combination assay, biofilm eradication. Particulars: S. epidermidis biofilm eradication; natural product alone; mean MBEC. Here is the method:
(§1) The effect of the combination of ATBs with NPs on the preformed biofilm was evaluated by determining the FICI, as described above for biofilm formation, with slight modifications. After biofilm formation for 24 h, the plate was gently emptied and washed three times with PBS. Then, 50 µL of ATBs and 50 µL of NPs were introduced to the plate. The final concentration ranges from 0.0625 to 128 µg/mL and from 4 to 512 µg/mL for ATBs and NPs, respectively, and is incubated at 37°C for 24 h. After incubation, the medium was gently removed, and the plate was washed three times with PBS. At the end of the incubation time, the MTT reduction assay was performed, and the MBEC was determined. To assess the effect of the combination, the FICI was calculated and interpreted as described above.

Experiment [2] relates to Staphylococcus saprophyticus biofilm. The experiment is described as above. Particulars: S. saprophyticus biofilm eradication; natural product alone; mean MBEC. How it is done: as §1
Experiment [3] has as its system UROtsa urinary epithelial cells. Put plainly: Cytotoxicity, MTT assay. Particulars: Epithelial cell, 48 h, read-out: IC50. Here is the method: (§2) Two cell lines, including Raw 264.7 macrophages and the urinary epithelial cell line UROtsa obtained from the American Type Culture Collection (Rockville, MD, USA), were used. They were cultured in Dulbecco's modified Eagle's medium (DMEM), which was supplemented with 10% fetal bovine serum (FBS) and 1% penicillin, streptomycin, and fungizone (PSF). They were then grown at 37°C in a humidified environment containing 5% CO2.
(§3) The cytotoxicity of the selected synergistic combinations, as well as the individual constituents of combinations, against the abovementioned cell lines was performed by the MTT assay as previously described. Briefly, cells from each line were harvested in the logarithmic phase using trypsin (0.05% trypsin, 0.02% EDTA in PBS). Cell suspension was diluted with an appropriate growth medium to obtain a cell density of 10^4 cells/well. A 100 µL aliquot of each suspension was seeded into 96-well cell culture plates and incubated at 37°C in an atmosphere of 5% CO2 and 95% relative humidity. After 24 h of incubation, 100 µL of samples (ATBs and NPs) at concentrations varying from 0.01, 0.1, 1, 10, 100, and 1000, as well as the synergistic combinations (C1 to C5), was added to the wells containing the cells. Doxorubicin was used as a positive control. Appropriate controls with an equivalent concentration of DMSO were also included. Plates were incubated for 48 h, then the medium in each well was aspirated, and MTT solution (2 mg/mL in PBS) was diluted 1:10 with fresh medium and added to each well, and the plates were further incubated at 37°C for 4 h. Absorbance was measured on a BioTek microplate reader at 570 nm. The percentage of cell viability was calculated by comparing treated and untreated cells using the equation [39]:(3) cell viability %=ODtest/ODcontrol×100.
(§4) Then, the IC50 values of the samples having shown at least 50% inhibition were calculated by plotting the percentage of inhibition against the concentrations.
On the technique in general: Tetrazolium assays rely on reduction of a dye to a coloured formazan, in cell work by metabolically active cells.

For a further experiment, the system named is Raw 264.7 macrophages. Put plainly: Cytotoxicity, MTT assay. Particulars: Mus musculus, RAW264.7, 48 h, Raw 264.7, MTT, read-out: IC50. How it is done: as §2, §3, §4

The IC50 is the point on the concentration scale where inhibition reaches its midpoint.

The structures appear in SMILES notation.

Take `O=c1c(O)c(-c2ccc(O)c(O)c2)oc2cc(O)cc(O)c12` [Quer]: the “MBEC Alone NPs” value is on record as 170.66 µg/mL in experiment [1] and 256 µg/mL in experiment [2].
Take `COc1cccc2c1C(=O)c1c(O)c3c(c(O)c1C2=O)C[C@@](O)(C(=O)CO)C[C@@H]3O[C@H]1C[C@H](N)[C@H](O)[C@H](C)O1` [Doxorubicin, doxorubicin]: the 50% inhibitory concentration (IC50) in experiment [3] was 1.58 µg/mL; with Raw 264.7 macrophages it was 1.26 µg/mL.
